Data taken from patent US11000495B2, “Topical diclofenac sodium compositions” (Novartis Consumer Health S.A., priority 2014, dated 2021).
Structures can show the parent of a compound that is named as a salt.

What was measured:
[1] = cited from earlier work
[2] = Solubility of diclofenac sodium 2 wt % in IPA/PG/water solvent mixtures by UV absorbance; format: physicochemical; settings: 2% diclofenac sodium in IPA/PG/water, 25° C., systems shown as circles in FIG. 1
Protocol: FIG. 1 is a ternary diagram of the solubility of diclofenac sodium, 2 wt %, at 25° C., as determined by UV absorbance, in solvent mixtures comprising isopropyl alcohol (bottom axis), propylene glycol (left axis), and water (right axis) in varying amounts. The data points represent solvent mixtures which are found to be at or above (circles), or below (squares), the target (i.e. 2%) solubility. FIG. 1 illustrates solubility studies of such solvent systems comprising 2% diclofenac sodium in isopropyl alcohol (IPA), propylene glycol (PG) and water. […] (Incomplete solubilization is represented by squares.)

Row | SMILES | water solubility ([1]; acid form, Fini et al.) | solubility of the salt in solvent systems [2] | kinetic solubility ([1]; anhydrous form, Llinas et al.)
1 | O=C(O)Cc1ccccc1Nc1c(Cl)cccc1Cl [Acidic diclofenac, diclofenac] | very low | – | –
2 | O=C(O)Cc1ccccc1Nc1c(Cl)cccc1Cl [diclofenac sodium, 2-[(2,6-dichloro-phenyl)amino]benzeneacetic acid, (mono) sodium salt] | – | Complete solubility | 40 ± 5 µg/mL
